How the values were obtained:
[1] = tested on: CD4+ HA-TCR transgenic splenocytes co-cultured with MDSCs; assay: IL-17A production by HA-stimulated splenocytes co-cultured with MDSCs (ELISA); format: cell-based, mouse; settings: splenocytes:MDSCs 3:1, HA peptide, five days, FIG. 3B
Experimental: Because IL-23 (p40/p19) is essential for the Th17 response, the effects of MDSCs, in the presence of GA, SP600125, or both, on IL-17A expression by CD4+ HA-TCR transgenic splenocytes stimulated with HA peptides was determined. Splenocytes from CD4+ HA-TCR transgenic mice were co-cultured with irradiated MDSCs at the ratio of 3:1 in the presence of HA peptide and SP600125, GA, or a combination of both. Five days later, the culture supernatants were collected for the determination of IL-17A concentration by ELISA.

Gr-1+CD115+ MDSCs [2] = assay: MDSC differentiation assay (flow cytometry); format: cell-based, mouse; settings: 24 hours culture, FIG. 4A
Source text: Gr-1+CD115+ MDSCs were sorted by MACS and cultured in the absence or presence of GA, SP600125, or both. Twenty-four hours later, viable cells were harvested and stained with anti-CD86, anti-CD80, anti-CD11c, anti-I-A, anti-F4/80, or isotype-matched control followed by flow cytometric analysis to assess MDSC differentiation.
To test whether differentiation of MDSCs can be inhibited or retarded by the treatment of GA, SP600125, or both, Gr-1+CD115+ MDSCs were sorted by MACS and cultured in the absence or presence of GA, SP600125, or both. Twenty-four (24) hours later, viable cells were harvested and stained with anti-CD86, anti-CD80, anti-CD11c, anti-I-A, anti-F4/80, or isotype-matched control followed by flow cytometric analysis. […] Treatment with GA or SP600125 impaired the spontaneous differentiation of MDSCs, as evidenced by the lower expressions of CD11c, MHC class II, co-stimulatory molecules, and F4/80.

Gr-1+CD115+ MDSCs [3] = assay: Prolongation of Treg cell inducing activity of pre-treated MDSCs; format: cell-based, mouse; settings: 96 hours pre-treatment, then 5 days co-culture, FIG. 4B
Experimental: It was further investigated whether the delay of MDSC differentiation correlated with the prolongation of the Treg cell inducing activity mediated by MDSCs. Purified Gr-1+CD115+ MDSCs from tumor-bearing mice were left non-treated or treated with SP600125, GA, or a combination of both for 0, 48, and 96 hours followed by co-culture with CD4 HA TCR transgenic for an additional 5 days. […] The percentages of Treg cell subpopulations were determined by flow cytometry.
In the absence of treatment with GA or SP00125, the Treg cell inducing activity of MDSCs gradually waned over the period of 4-day culture (FIG. 4B).

[4] = tested on: TLR 2, 3, and 4 expression in MDSCs; settings: microarray analysis
Source text: (§1) Five days later, cells were harvested and stained with anti-CD4-FITC+anti-CD25-APC+anti-Foxp3-PE or isotype controls followed by flow cytometry.

MDSCs = assay: Treg induction by MDSCs with or without LPS; format: cell-based, mouse; settings: five days, FIG. 9A
Source text: as §1

CD115+ MDSCs = settings: FIG. 9B
Experimental: IL-10 and IFN-γ levels in the supernatant were measured by ELISA.

IRF-3 = settings: MDSCs stimulated with LPS for 2 hours, FIG. 9C
Source text: Actin was used as a loading control. Primary antibodies were anti-NFκB, anti-phospho-IRF3 (pIRF3), and anti-β-actin (Cell Signaling Technologies, Danvers, Mass.).

multiple sclerosis = settings: GA alone, Johnson et al. (1995); cited from earlier work
IBD = settings: GA alone, clinical studies discontinued; cited from earlier work

For “L-glutamic acid polymer with L-alanine, L-lysine and L-tyrosine, acetate (salt) [GA]”, the IL-17A production [1] was “decreased”, the “spontaneous differentiation of MDSCs (CD11c, MHC class II, co-stimulatory molecules, F4/80)” value (Gr-1+CD115+ MDSCs [2]) was “impaired” and the “Treg cell inducing activity of treated MDSCs on day 4” value (Gr-1+CD115+ MDSCs [3]) was “still maintained a significant Treg cell inducing activity”. The “levels of TLR 2, 3, and 4 expression in MDSCs” value [4] was “significant reduction”, the “Treg cell induction by MDSCs without LPS” value (MDSCs; CD4+ HA TCR splenocytes) was 11.1% and the “Treg cell induction by MDSCs with LPS” value (MDSCs; LPS 100 ng/mL) was 5.31%. The “IFN-γ production induced by LPS in MDSCs” value (CD115+ MDSCs; 100 ng/mL LPS, 30 hours, ELISA) was “significantly reduced”, the “IL-10 production by MDSCs” value (CD115+ MDSCs; with LPS) was “favors IL-10 production” and the “IRF-3 activation induced by LPS” value (IRF-3) was “inhibition”. The “efficacy for treating multiple sclerosis” value (multiple sclerosis) was “only partially effective” and the “efficacy for treating IBD” value (IBD) was “failed to treat IBD”.
